Laboratory results published in US20220267329A1, “Dihydro-Spiro[Indoline-3:1'-Isoquinolin]-2-Ones and Their Analogues and Derivatives and Methods of Treating Cancer and Other Diseases” (The University of Buea, priority 2019, published 2022).

What was measured:
[1] = system: nonsmall cell lung cancer (NSCLC) cell lines; test: NCI-60 screen, NSCLC cell lines; format: cell-based, human; settings: NCI-60 preliminary screening; for inhibition at 10 µM: Homo sapiens, read-out: Percent (%) Inhibition of Cancer Cell Line, NSCLC
Experimental: (§1) Screening for Anticancer Activity—The NCI-60 panel: Representative compounds of the invention were subjected to anticancer testing in the National Cancer Institute (NCI) 60 screen. In this screen compounds are tested on a panel of sixty human cancer cell lines chosen from the following cancers: leukemia, nonsmall cell lung cancer (NSCLC), colon, melanoma, central nervous system (CNS), ovarian, renal, prostate and breast. The assay method is found on the NCI website (dtp.cancer.gov/discovery_development/nci-60/methodology.htm). In the NCI-60 assay, test compounds undergo preliminary screening at 10 μM concentration. The data is reported as percent growth relative to “no drug” control; therefore values between 0 and 100% denote growth inhibition.

[2] = system: ovarian cancer cell lines; test: NCI-60 screen, ovarian cell lines; format: cell-based, human; settings: NCI-60 preliminary screening; for inhibition at 10 µM: Homo sapiens, read-out: Percent (%) Inhibition of Cancer Cell Line, Ovarian
Experimental: as §1

[3] = system: renal cancer cell lines; test: NCI-60 screen, renal cell lines; format: cell-based, human; settings: NCI-60 preliminary screening; for inhibition at 10 µM: Homo sapiens, read-out: Percent (%) Inhibition of Cancer Cell Line, Renal Cell
Experimental: as §1

[4] = system: EMT6 breast cancer cell line; test: Antiproliferative screening on EMT6 cancer cells; format: cell-based; settings: for activity at 100 µM: Mus musculus, EMT6, no ligand = 100, read-out: EMT6 cell proliferation (%)
Experimental: Representative compounds were screened tested for antiproliferative activity on the EMT6 breast cancer cell line. Screening was carried out according to published procedures (Zeng et al., 2014). In this screen, compounds were tested at 100 μM concentration.

[5] = target: sphingosine-1-phosphate receptor 1 (S1PR1) (Homo sapiens, UniProt P21453); test: Radioligand binding to sphingosine-1-phosphate receptor 1; settings: test compound 100 nM, 0.2 nM radioligand; read-out: % INHIBITION of binding to the SIP1 Receptor
Experimental: The binding of a representative group of compounds of this invention to sphingosine-1-phosphate receptor 1 (S1PR1) was determined by a published procedure (Rosenberg et al., 2016). In this assay, the test compound at 100 nM concentration was incubated with 0.2 nM radioligand. Active compounds or “hits” are defined as compounds that inhibit radioligand binding by 50% or more. […] This finding is significant because it establishes the 3′,4′-dihydro-2′H-[…]-2-one hybrid scaffold as an entirely new class of ligands for the sphingosine-1-phosphate receptors.

[6] = system: prostate cancer cell lines; test: NCI-60 screen, prostate cell lines; format: cell-based, human; settings: NCI-60 preliminary screening; for inhibition at 10 µM: Homo sapiens, Prostate cell, read-out: Percent (%) Inhibition of Cancer Cell Line, Prostate
Experimental: as §1

[7] = system: breast cancer cell lines; test: NCI-60 screen, breast cell lines; format: cell-based, human; settings: NCI-60 preliminary screening; for inhibition at 10 µM: Homo sapiens, read-out: Percent (%) Inhibition of Cancer Cell Line, Breast
Experimental: as §1

[8] = system: leukemia cell lines; test: NCI-60 screen, leukemia cell lines; format: cell-based; settings: Homo sapiens, NCI-60 preliminary screening, read-out: Percent (%) Inhibition of Cancer Cell Line, Leukemia
Experimental: as §1

[9] = system: central nervous system (CNS) cancer cell lines; test: NCI-60 screen, CNS cell lines; format: cell-based; settings: Homo sapiens, NCI-60 preliminary screening, read-out: Percent (%) Inhibition of Cancer Cell Line, CNS
Experimental: as §1

[10] = system: panel of sixty human cancer cell lines; test: NCI-60 screen, whole panel; format: cell-based; settings: 10 μM
Experimental: as §1

[11] = system: melanoma cell lines; test: NCI-60 screen, melanoma cell lines; format: cell-based; settings: Homo sapiens, NCI-60 preliminary screening, read-out: Percent (%) Inhibition of Cancer Cell Line, Melanoma
Experimental: as §1

Chain of sphingosine-1-phosphate receptor 1 (S1PR1) (P21453 whole entry, species assumed): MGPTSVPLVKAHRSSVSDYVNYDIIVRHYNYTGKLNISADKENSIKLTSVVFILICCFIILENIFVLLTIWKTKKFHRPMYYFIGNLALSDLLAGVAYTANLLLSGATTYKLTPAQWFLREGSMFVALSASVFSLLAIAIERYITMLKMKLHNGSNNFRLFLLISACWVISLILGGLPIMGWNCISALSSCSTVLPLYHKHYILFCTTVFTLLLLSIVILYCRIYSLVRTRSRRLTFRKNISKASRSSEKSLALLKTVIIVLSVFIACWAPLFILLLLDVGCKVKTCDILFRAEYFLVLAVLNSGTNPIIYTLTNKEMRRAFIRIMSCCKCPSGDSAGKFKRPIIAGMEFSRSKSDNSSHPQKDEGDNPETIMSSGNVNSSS

Structure (SMILES)	inhibition at 10 µM [1] [%]	inhibition at 10 µM [3] [%]	activity at 100 µM [4] [%]	inhibition at 0.1 µM [5] [%]	inhibition at 10 µM [8] [%]	inhibition at 10 µM [7] [%]	further results
O=C1Nc2ccccc2C12NCCc1cccc(O)c12 (centres unmarked) [Compound 1a, 8′-Hydroxy-3′,4′-dihydro-2′H-spiro[indoline-3,1′-isoquinolin]-2-one]	15	14	104	–	–	–	inhibition at 10 µM [2]: 10%
O=C1N(Cc2ccc(F)cc2)c2ccccc2C12NCCc1cccc(O)c12 (centres unmarked) [Compound 1d, 1-(4-Fluorobenzyl)-8′-hydroxy-3′,4′-dihydro-2H-spiro[indoline-3,1′-isoquinolin]-2-one]	–	–	120	≥ 50	–	–	melting point: 119 to 121 °C
O=C1N(Cc2ccc(Cl)cc2)c2ccccc2C12NCCc1cccc(O)c12 (centres unmarked) [Compound 1e, 1-(4-Chlorobenzyl)-8′-hydroxy-3′,4°-dihydro-2′H-spiro[indoline-3,1′-isoquinolin]-2-one]	–	–	–	–	–	–	Percent (%) Inhibition of Cancer Cell Line, NSCLC ([1]; 10 μM): 30%; Percent (%) Inhibition of Cancer Cell Line, Prostate ([6]; 10 μM): 14%; Percent (%) Inhibition of Cancer Cell Line, Ovarian ([2]; 10 μM): 14%; Percent (%) Inhibition of Cancer Cell Line, Renal Cell ([3]; 10 μM): 35%; EMT6 cell proliferation (%) ([4]; 100 μM, no ligand = 100): 77.91%; Percent (%) Inhibition of Cancer Cell Line, Breast ([7]; 10 μM): 12%
O=C1N(Cc2ccc(Cl)c(Cl)c2)c2ccccc2C12NCCc1cccc(O)c12 (centres unmarked) [Compound 1g, 1-(3,4-Dichlorobenzyl)-8′-hydroxy-3′,4′-dihydro-2′H-spiro[indoline-3,1′-isoquinolin]-2-one]	–	–	91.1	–	–	–	melting point: 109 to 113 °C
O=C1N(Cc2ccc(Cl)c(Cl)c2)c2ccccc2C12NCCc1cc(O)ccc12 (centres unmarked) [Compound 2g, 1-(3,4-Dichlorobenzyl)-6′-hydroxy-3′,4′-dihydro-2′H-spiro[indoline-3,1′-isoquinolin]-2-one]	25	22 to 36	56.5	–	19	13	inhibition at 10 µM [6]: 19%; inhibition of EMT6 cell proliferation ([4]; 100 μM): as much as fifty percent
COc1ccc2c(c1)CCNC21C(=O)Nc2ccccc21 (centres unmarked) [Compound 4a, 6′-Methoxy-3′,4′-dihydro-2′H-spiro[indoline-3,1′-isoquinolin]-2-one]	–	20	–	36.2	–	–	inhibition at 10 µM [9]: 20%
COc1ccc2c(c1)CCNC21C(=O)N(Cc2ccc(C)cc2)c2ccccc21 (centres unmarked) [Compound 4e, 6′-Methoxy-1-(4-methylbenzyl)-3′,4′-dihydro-2′H-spiro[indoline-3,1′-isoquinolin]-2-one]	25 to 28	30 to 46	–	38.1	–	25 to 30	antiproliferative activity in the NCI-60 panel [10]: most potent analogues
COc1cc2c(cc1OC)C1(NCC2)C(=O)Nc2ccc(Cl)cc21 (centres unmarked) [Compound 5b, 5-Chloro-6′,7′-dimethoxy-3′,4′-dihydro-2′H-spiro[indoline-3,1′-isoquinolin]-2-one]	–	22	–	≥ 50	–	–	inhibition at 10 µM [9]: 32%
COc1cc2c(cc1OC)C1(NCC2)C(=O)Nc2c(Br)cc(Br)cc21 (centres unmarked) [Compound 5c, 5,7-dibromo-6′,7′-dimethoxy-3′,4′-dihydro-2′H-spiro[indoline-3,1′-isoquinolin]-2-one]	–	27 to 35	–	37.6	24	–	inhibition at 10 µM [9]: 25%
COc1cc2c(cc1OC)C1(NCC2)C(=O)N(Cc2ccc(C)cc2)c2ccccc21 (centres unmarked) [Compound 5e, 6′,7′-Dimethoxy-1-(4-methylbenzyl)-3′,4′-dihydro-2′H-spiro[indoline-3,1′-isoquinolin]-2-one]	–	25	–	32.4	24 to 48	22 to 24	antiproliferative activity in the NCI-60 panel [10]: most potent analogues; inhibition at 10 µM [6]: 42%
COc1cc2c(cc1OC)C1(NCC2)C(=O)N(Cc2ccc(Br)cc2)c2ccc(Cl)cc21 (centres unmarked) [Compound 5f, 1-(4-Bromobenzyl)-5-chloro-6′,7′-dimethoxy-3′,4′-dihydro-2′H-spiro[indoline-3,1′-isoquinolin]-2-one]	–	–	–	–	38 to 55	27 to 36	inhibition at 10 µM [11]: 44%; antiproliferative activity in the NCI-60 panel [10]: most potent analogues; inhibition at 10 µM [6]: 52%; inhibition at 10 µM [2]: 39%
COc1cc2c(c(OC)c1OC)C1(NCC2)C(=O)Nc2ccc(Cl)cc21 (centres unmarked) [Compound 6b, 5-Chloro-6′,7′,8′-trimethoxy-3′,4′-dihydro-2′H-spiro[indoline-3,1′-isoquinolin]-2-one]	20	28 to 31	–	41.1	–	–	inhibition at 10 µM [2]: 20%
